Source: patent US8129369B2, “Antifungal compounds containing benzothiazinone, benzoxazinone or benzoxazolinone and process thereof” (Council of Scientific & Industrial Research;, priority 2008, dated 2012)
Converted amounts (≈) assume the structure as drawn.

Assays:
A. niger ATCC 16404 = assay: MIC by broth macro-dilution method, A. niger ATCC 16404; type: cell-based, Aspergillus niger; conditions: 48 hours; for MIC: Aspergillus niger, ATCC16404, RPMI 1640 with MOPS, MIC = concentration exhibiting 80% inhibition vs positive growth control
Procedure: (§1) The compounds of Formula 1 were tested for antifungal activity against various fungi including Candida albicans, Aspergillus niger and Fusarium proliferatum. In vitro evaluation of antifungal activity was performed by determining the minimum inhibitory concentration (MIC) following standard methods (CLSI: Reference method for broth dilution antifungal susceptibility testing of yeasts; Approved standard, second edition M27-A2, 2002; CLSI: Reference method for broth dilution antifungal susceptibility testing of filamentous fungi; Approved standard M38-A, 2002). Anti-fungal susceptibility testing of these anti-fungal compounds was done by broth dilution method using RPMI 1640 medium with MOPS buffer. Known anti-fungal agents like Fluconazole and Amphotericin-B were used as standards. End points were determined after 48 hours visually and by using spectrophotometer wherever necessary.
(§2) >16 μg/ml: The novel compounds of formula 1 are generally tested for concentration range from 0.03 μg/ml to the concentration till it was in solution (For e.g.: Back precipitation 128-32 μg/ml, Concentration for assay: 0.03 to 16 μg/ml).

[1] = tested on: F. proliferatum ATCC 10052; assay: MIC by broth macro-dilution method, F. proliferatum ATCC 10052; type: cell-based, Fusarium proliferatum; conditions: 48 hours; for MIC: Fusarium proliferatum, ATCC10052, RPMI 1640 with MOPS, MIC = concentration exhibiting 80% inhibition vs positive growth control
Procedure: as §1, §2

C. albicans ATCC 24433 = assay: MIC by broth macro-dilution method, C. albicans ATCC 24433; type: cell-based, Candida albicans; conditions: 48 hours; for MIC: Candida albicans, ATCC24433, RPMI 1640 with MOPS, MIC = concentration exhibiting 80% inhibition vs positive growth control
Procedure: as §1, §2

C. albicans ATCC90028 = assay: MIC by broth micro-dilution method, C. albicans ATCC90028; type: cell-based, Candida albicans; conditions: for MIC: Candida albicans, ATCC90028, MIC = concentration exhibiting 50% inhibition vs positive control
Procedure: as §1

C. albicans ATCC24433 = assay: MIC by broth micro-dilution method, C. albicans ATCC24433; type: cell-based, Candida albicans; conditions: for MIC: Candida albicans, ATCC24433, MIC = concentration exhibiting 50% inhibition vs positive control
Procedure: as §1

C. albicans ATCC2091 = assay: MIC by broth micro-dilution method, C. albicans ATCC2091; type: cell-based, Candida albicans; conditions: for MIC: Candida albicans, ATCC2091, MIC = concentration exhibiting 50% inhibition vs positive control
Procedure: as §1

C. albicans ATCC10231 = assay: MIC by broth micro-dilution method, C. albicans ATCC10231; type: cell-based, Candida albicans; conditions: for MIC: Candida albicans, ATCC10231, MIC = concentration exhibiting 50% inhibition vs positive control
Procedure: as §1

C. tropicalis ATCC750 = assay: MIC by broth micro-dilution method, C. tropicalis ATCC750; type: cell-based; conditions: for MIC: Candida tropicalis, ATCC750, MIC = concentration exhibiting 50% inhibition vs positive control
Procedure: as §1

C. glabrata ATCC90030 = assay: MIC by broth micro-dilution method, C. glabrata ATCC90030; type: cell-based; conditions: for MIC: Nakaseomyces glabratus, ATCC90030, MIC = concentration exhibiting 50% inhibition vs positive control
Procedure: as §1

C. krusei ATCC6258 = assay: MIC by broth micro-dilution method, C. krusei ATCC6258; type: cell-based; conditions: for MIC: Pichia kudriavzevii, ATCC6258, MIC = concentration exhibiting 50% inhibition vs positive control
Procedure: as §1

[2] = MIC = concentration exhibiting complete inhibition (Amphotericin B)
[3] = RPMI 1640 with MOPS, MIC = concentration exhibiting complete inhibition (Amphotericin B)

COc1ccc2c(c1)SCC(=O)N2CC(O)(Cn1cncn1)c1ccc(F)cc1F (stereo not shown) [Compound 1d, 4-[2-(2,4-Difluorophenyl)-2-hydroxy-3-[1,2,4]triazol-1-yl-propyl]-7-methoxy-4H-benzo[1,4]thiazin-3-one]
MIC (A. niger ATCC 16404): > 32 µg/mL
MIC [1]: > 32 µg/mL
MIC (C. albicans ATCC 24433): 4 µg/mL (≈ 9.25 µM)

O=C1CSc2ccccc2N1CC(O)(Cn1cncn1)c1ccc(F)cc1F (stereo not shown) [Compound 1a, 4-[2-(2,4-Difluorophenyl)-2-hydroxy-3-[1,2,4]triazol-1-yl-propyl]-4H-benzo[1,4]thiazin-3-one]
MIC (C. albicans ATCC90028): 0.03 µg/mL (≈ 0.0745 µM)
MIC (A. niger ATCC 16404): > 64 µg/mL
MIC [1]: > 64 µg/mL
MIC (C. albicans ATCC 24433): 0.25 µg/mL (≈ 0.621 µM)
MIC (C. albicans ATCC24433): 0.03 µg/mL (≈ 0.0745 µM)
MIC (C. albicans ATCC2091): 2 µg/mL (≈ 4.97 µM)
MIC (C. albicans ATCC10231): 0.12 µg/mL (≈ 0.298 µM)
MIC (C. tropicalis ATCC750): 0.5 µg/mL (≈ 1.24 µM)
MIC (C. glabrata ATCC90030): 0.06 µg/mL (≈ 0.149 µM)
MIC (C. krusei ATCC6258): 4 µg/mL (≈ 9.94 µM)

O=C1COc2ccc(Br)cc2N1CC(O)(Cn1cncn1)c1ccc(F)cc1F (stereo not shown) [Compound 1k, 6-Bromo-4-[2-(2,4-difluorophenyl)-2-hydroxy-3-[1,2,4]triazol-1-yl-propyl]-4H-benzo[1,4]oxazin-3-one]
MIC (A. niger ATCC 16404): > 32 µg/mL
MIC [1]: > 32 µg/mL
MIC (C. albicans ATCC 24433): 16 µg/mL (≈ 34.4 µM)

O=C1COc2ccc(Cl)cc2N1CC(O)(Cn1cncn1)c1ccc(Br)cc1 (stereo not shown) [Compound 1n, 4-[2-(4-Bromophenyl)-2-hydroxy-3-[1,2,4]-triazol-1-yl-propyl]-6-chloro-4H-benzo[1,4]oxazin-3-one]
MIC (A. niger ATCC 16404): > 16 µg/mL
MIC [1]: > 16 µg/mL
MIC (C. albicans ATCC 24433): 4 µg/mL (≈ 8.63 µM)

O=C1CSc2cc(Cl)ccc2N1CC(O)(Cn1cncn1)c1ccc(F)cc1F (stereo not shown) [Compound 1b, 7-Chloro-4-[2-(2,4-difluorophenyl)-2-hydroxy-3-[1,2,4]-triazol-1-yl-propyl]-4H-benzo[1,4]thiazin-3-one]
MIC (A. niger ATCC 16404): > 16 µg/mL
MIC [1]: > 16 µg/mL
MIC (C. albicans ATCC 24433): 1 µg/mL (≈ 2.29 µM)

O=c1oc2ccccc2n1CC(O)(Cn1cncn1)c1ccc(F)cc1F (stereo not shown) [Compound 1q, 3-[2-(2,4-Difluorophenyl)-2-hydroxy-3-[1,2,4]triazol-1-yl-propyl]-3H-benzoxazolin-2-one]
MIC (A. niger ATCC 16404): > 128 µg/mL
MIC [1]: > 128 µg/mL
MIC (C. albicans ATCC 24433): 2 µg/mL (≈ 5.37 µM)

O=C1COc2ccc(Cl)cc2N1CC(O)(Cn1cncn1)c1ccc(F)cc1F (stereo not shown) [Compound 1j, 6-Chloro-4-[2-(2,4-difluorophenyl)-2-hydroxy-3-[1,2,4]triazol-1-yl-propyl]-4H-benzo[1,4]oxazin-3-one]
MIC (A. niger ATCC 16404): > 32 µg/mL
MIC [1]: > 32 µg/mL
MIC (C. albicans ATCC 24433): 8 µg/mL (≈ 19 µM)

CC(=O)c1ccc2c(c1)N(CC(O)(Cn1cncn1)c1ccc(Br)cc1)C(=O)CO2 (stereo not shown) [Compound 1p, 6-Acetyl-4-[2-(4-bromophenyl)-2-hydroxy-3-[1,2,4]triazol-1-yl-propyl]-4H-benzo[1,4]oxazin-3-one]
MIC (A. niger ATCC 16404): > 32 µg/mL
MIC [1]: > 32 µg/mL
MIC (C. albicans ATCC 24433): 32 µg/mL (≈ 67.9 µM)

O=C1COc2ccc([N+](=O)[O-])cc2N1CC(O)(Cn1cncn1)c1ccc(F)cc1F (stereo not shown) [Compound 1l, 4-[2-(2,4-Difluorophenyl)-2-hydroxy-3-[1,2,4]triazol-1-yl-propyl]-6-nitro-4H-benzo[1,4]oxazin-3-one]
MIC (A. niger ATCC 16404): > 32 µg/mL
MIC [1]: > 32 µg/mL
MIC (C. albicans ATCC 24433): 32 µg/mL (≈ 74.2 µM)

OC(Cn1cncn1)(Cn1cncn1)c1ccc(F)cc1F [Fluconazole, reference compound]
MIC (C. albicans ATCC90028): 0.5 µg/mL (≈ 1.63 µM)
MIC (A. niger ATCC 16404): 128 µg/mL (≈ 418 µM)
MIC [1]: > 128 µg/mL
MIC (C. albicans ATCC 24433): 1 µg/mL (≈ 3.27 µM)
MIC (C. albicans ATCC24433): 0.25 µg/mL (≈ 0.816 µM)
MIC (C. albicans ATCC2091): 4 µg/mL (≈ 13.1 µM)
MIC (C. albicans ATCC10231): 1 µg/mL (≈ 3.27 µM)
MIC (C. tropicalis ATCC750): 2 µg/mL (≈ 6.53 µM)
MIC (C. glabrata ATCC90030): 4 µg/mL (≈ 13.1 µM)
MIC (C. krusei ATCC6258): 64 µg/mL (≈ 209 µM)

C[C@@H]1[C@H](O)[C@@H](C)/C=C/C=C/C=C/C=C/C=C/C=C/C=C/[C@H](O[C@@H]2O[C@H](C)[C@@H](O)[C@H](N)[C@@H]2O)C[C@@H]2O[C@](O)(C[C@@H](O)C[C@@H](O)[C@H](O)CC[C@@H](O)C[C@@H](O)CC(=O)O[C@H]1C)C[C@H](O)[C@H]2C(=O)O [Amphotericin B, reference compound]
MIC C. albicans ATCC90028 (C. albicans ATCC90028; [2]): 0.5 µg/mL (≈ 0.541 µM)
MIC A. niger ATCC 16404 (A. niger ATCC 16404; [3]): 1 µg/mL (≈ 1.08 µM)
MIC F. proliferatum ATCC 10052 [1, 3]: 2 µg/mL (≈ 2.16 µM)
MIC C. albicans ATCC24433 (C. albicans ATCC 24433; [3]): 0.25 µg/mL (≈ 0.271 µM)
MIC C. albicans ATCC24433 (C. albicans ATCC24433; [2]): 0.25 µg/mL (≈ 0.271 µM)
MIC C. albicans ATCC2091 (C. albicans ATCC2091; [2]): 0.5 µg/mL (≈ 0.541 µM)
MIC C. albicans ATCC10231 (C. albicans ATCC10231; [2]): 0.5 µg/mL (≈ 0.541 µM)
MIC C. tropicalis ATCC750 (C. tropicalis ATCC750; [2]): 0.5 µg/mL (≈ 0.541 µM)
MIC C. glabrata ATCC90030 (C. glabrata ATCC90030; [2]): 0.25 µg/mL (≈ 0.271 µM)
MIC C. krusei ATCC6258 (C. krusei ATCC6258; [2]): 0.5 µg/mL (≈ 0.541 µM)

O=C1COc2ccccc2N1CC(O)(Cn1cncn1)c1ccc(F)cc1F (stereo not shown) [Compound 1i, 4-[2-(2,4-Difluorophenyl)-2-hydroxy-3-[1,2,4]-triazol-1-yl-propyl]-4H-benzo[1,4]oxazin-3-one]
MIC (C. albicans ATCC90028): 0.12 µg/mL (≈ 0.311 µM)
MIC (A. niger ATCC 16404): > 64 µg/mL
MIC [1]: > 64 µg/mL
MIC (C. albicans ATCC 24433): 0.5 µg/mL (≈ 1.29 µM)
MIC (C. albicans ATCC24433): 0.12 µg/mL (≈ 0.311 µM)
MIC (C. albicans ATCC2091): 4 µg/mL (≈ 10.4 µM)
MIC (C. albicans ATCC10231): 0.5 µg/mL (≈ 1.29 µM)
MIC (C. tropicalis ATCC750): 2 µg/mL (≈ 5.18 µM)
MIC (C. glabrata ATCC90030): 0.25 µg/mL (≈ 0.647 µM)
MIC (C. krusei ATCC6258): 16 µg/mL (≈ 41.4 µM)

Cc1ccc2c(c1)SCC(=O)N2CC(O)(Cn1cncn1)c1ccc(F)cc1F (stereo not shown) [Compound 1e, 4-[2-(2,4-Difluorophenyl)-2-hydroxy-3-[1,2,4]triazol-1-yl-propyl]-7-methyl-4H-benzo[1,4]thiazin-3-one]
MIC (A. niger ATCC 16404): > 32 µg/mL
MIC [1]: > 32 µg/mL
MIC (C. albicans ATCC 24433): 2 µg/mL (≈ 4.8 µM)

CC(=O)c1ccc2c(c1)N(CC(O)(Cn1cncn1)c1ccc(F)cc1F)C(=O)CO2 (stereo not shown) [Compound 1m, 6-Acetyl-4-[2-(2,4-difluorophenyl)-2-hydroxy-3-[1,2,4]-triazol-1-yl-propyl]-4H-benzo[1,4]oxazin-3-one]
MIC (A. niger ATCC 16404): > 64 µg/mL
MIC [1]: > 64 µg/mL
MIC (C. albicans ATCC 24433): > 64 µg/mL

O=C1CSc2cc(Br)ccc2N1CC(O)(Cn1cncn1)c1ccc(F)cc1F (stereo not shown) [Compound 1c, 7-Bromo-4-[2-(2,4-difluorophenyl)-2-hydroxy-3-[1,2,4]triazol-1-yl-propyl]-4H-benzo[1,4]thiazin-3-one]
MIC (A. niger ATCC 16404): > 16 µg/mL
MIC [1]: > 16 µg/mL
MIC (C. albicans ATCC 24433): 1 µg/mL (≈ 2.08 µM)

COc1ccc2c(c1)SCC(=O)N2CC(O)(Cn1cncn1)c1ccc(F)cc1 (stereo not shown) [Compound 1h, 4-[2-(4-Fluorophenyl)-2-hydroxy-3-[1,2,4]triazol-1-yl-propyl]-7-methoxy-4H-benzo[1,4]thiazin-3-one]
MIC (A. niger ATCC 16404): > 16 µg/mL
MIC [1]: > 16 µg/mL
MIC (C. albicans ATCC 24433): 8 µg/mL (≈ 19.3 µM)

O=C1CSc2cc(Cl)ccc2N1CC(O)(Cn1cncn1)c1ccc(F)cc1 (stereo not shown) [Compound 1f, 7-Chloro-4-[2-(4-fluorophenyl)-2-hydroxy-3-[1,2,4]-triazol-1-yl-propyl]-4H-benzo[1,4]thiazin-3-one]
MIC (A. niger ATCC 16404): > 16 µg/mL
MIC [1]: > 16 µg/mL
MIC (C. albicans ATCC 24433): 2 µg/mL (≈ 4.77 µM)

COc1ccc2c(c1)SCC(=O)N2CC(O)(Cn1cncn1)c1ccc(Br)cc1 (stereo not shown) [Compound 1g, 4-[2-(4-Bromophenyl)-2-hydroxy-3-[1,2,4]triazol-1-yl-propyl]-7-methoxy-4H-benzo[1,4]thiazin-3-one]
MIC (A. niger ATCC 16404): > 16 µg/mL
MIC [1]: > 16 µg/mL
MIC (C. albicans ATCC 24433): 2 µg/mL (≈ 4.21 µM)
